target: T1, human renin (Homo sapiens, UniProt P00797); test: Determination of renin IC50 by tGFP FRET assay; type: biochemical; settings: Human recombinant renin, tandem GFP substrate 650 nM, 60 min incubation with compound, pH 7.4, 11-point curve
T1 sequence (P00797 67-406): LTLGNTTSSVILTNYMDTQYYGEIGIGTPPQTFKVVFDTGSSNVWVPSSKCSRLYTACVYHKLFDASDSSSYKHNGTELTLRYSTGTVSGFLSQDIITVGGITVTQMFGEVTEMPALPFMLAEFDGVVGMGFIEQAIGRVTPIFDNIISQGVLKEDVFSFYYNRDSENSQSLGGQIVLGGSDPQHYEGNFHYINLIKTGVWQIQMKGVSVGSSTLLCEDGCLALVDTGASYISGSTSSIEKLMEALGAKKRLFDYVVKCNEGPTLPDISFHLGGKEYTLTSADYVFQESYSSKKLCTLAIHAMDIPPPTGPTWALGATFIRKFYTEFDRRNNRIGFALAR
Method in brief: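 Human recombinant renin (final 50.4 μIU) preincubated 60 min with compound (5% DMSO final) in 50 mM HEPES, 1 mM EDTA, 1% PEG 8000, 1 mM DTT, 0.1% BSA, pH 7.4, then tandem-GFP substrate added at 650 nM final. FRET fluorescence read; IC50 from 11-point curves spanning 100 μM–1 pM.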

`COc1ccccc1OCCCCOc1ccc(N2C(=O)CNC[C@@H]2COc2ccc3ccccc3c2)cc1` [Example 73, (6R)-1-{4-[4-(2-methoxyphenoxy)-butoxy]-phenyl}-6-(naphthalen-2-yloxymethyl)-piperazin-2-one] and `COc1ccccc1CSCCCOc1ccc(N2C(=O)CNC[C@@H]2COc2ccc3ccccc3c2)cc1` [Example 101, (6R)-1-{4-[3-(2-methoxybenzylsulfanyl)-propoxy]-phenyl}-6-(naphthalene-2-yloxymethyl)-piperazin-2-one] cannot be ordered by IC50: 1.73 µM for the first, > 1 µM for the second.

`COc1ccccc1COCCOCc1ccc(N2C(=O)CNC[C@@H]2COCc2ccc(F)cc2)cc1` [Example 74, (6R)-6-(4-fluorobenzyloxymethyl)-1-{4-[2-(2-methoxybenzyloxy)-ethoxymethyl]-phenyl}-piperazin-2-one] and `COc1ccccc1OCCCOCc1ccc(N2C(=O)CNC[C@@H]2COCc2ccc(F)cc2)cc1` [Example 76, (6R)-6-(4-fluorobenzyloxymethyl)-1-{4-[3-(2-methoxyphenoxy)-propoxymethyl]-phenyl}-piperazin-2-one] cannot be ordered by IC50: 4.09 µM for the first, > 1 µM for the second.

Compared with `COc1ccc(COC[C@H]2CNCCN2c2ccc(OCCCCOc3ccccc3OC)cc2)cc1` [Example 75, (2R)-2-(4-methoxybenzyloxymethyl)-1-{4-[4-(2-methoxyphenoxy)-butoxy]-phenyl}-piperazine], `COc1ccccc1OCCCOCc1ccc(N2CCNC[C@@H]2COc2ccc3ccccc3c2)cc1` [Example 97, (2R)-1-(4-[3-(2-methoxyphenoxy)-propoxymethyl]-phenyl)-2-(naphthalene-2-yloxymethyl)-piperazine] is 1.6-fold lower in IC50: 42 µM for the first, 26.3 µM for the second. The second is the more potent here.

Compared with `COc1ccccc1COCCCOc1ccc(N2C(=O)CNC[C@@H]2COc2ccc3ccccc3n2)cc1` [Example 77, (6R)-1-{4-[3-(2-methoxybenzyloxy)-propoxy]-phenyl}-6-(quinolin-2-yloxymethyl)-piperazin-2-one], `COc1ccccc1COCCCOc1ccc(N2C(=O)CNC[C@@H]2COc2ccccn2)cc1` [Example 80, (6R)-1-{4-[3-(2-methoxybenzyloxy)-propoxy]-phenyl}-6-(pyridin-2-yloxymethyl)-piperazin-2-one] is 1.6-fold higher in IC50: 13.1 µM for the first, 20.9 µM for the second.

Compared with `COc1ccccc1COCCCOc1ccc(N2C(=O)CNC[C@@H]2COc2cnccn2)cc1` [Example 79, (6R)-1-{4-[3-(2-methoxybenzyloxy)-propoxy]-phenyl}-6-(pyrazin-2-yloxymethyl)-piperazin-2-one], `COc1ccccc1COCCCOc1ccc(N2C(=O)CNC[C@@H]2COc2ncccn2)cc1` [Example 81, (6R)-1-{4-[3-(2-methoxybenzyloxy)-propoxy]-phenyl}-6-(pyrimidin-2-yloxymethyl)-piperazin-2-one] is 2.3-fold lower in IC50: 76.4 µM for the first, 33.9 µM for the second.

`COc1ccccc1COCCCOc1ccc(N2C(=O)CNC[C@@H]2CNC(=O)c2ccccc2OC)cc1` [Example 82, 2-methoxy-N-([2R]-1-{4-[3-(2-methoxybenzyloxy)-propoxy]-phenyl}-6-oxopiperazin-2-ylmethyl)-benzamide] and `COc1ccccc1COCCCOc1ccc(N2C(=O)CNC[C@@H]2CNC(=O)c2ccccc2F)cc1` [Example 86, 2-fluoro-N-([2R]-1-{4-[3-(2-methoxybenzyloxy)-propoxy]-phenyl}-6-oxopiperazin-2-ylmethyl)-benzamide] cannot be ordered by IC50: > 1 µM for the first, > 1 µM for the second.

`COc1ccccc1COCCCOc1ccc(N2C(=O)CNC[C@@H]2CNC(=O)c2ccc(Cl)cc2)cc1` [Example 83, 4-chloro-N-([2R]-1-{4-[3-(2-methoxybenzyloxy)-propoxy]-phenyl}-6-oxopiperazin-2-ylmethyl)-benzamide] and `COc1ccccc1COCCCOc1ccc(N2C(=O)CNC[C@@H]2CNC(=O)c2ccccc2)cc1` [Example 84, N-([2R]-1-{4-[3-(2-methoxy-benzyloxy)-propoxy]-phenyl}-6-oxopiperazin-2-ylmethyl)-benzamide] cannot be ordered by IC50: > 1 µM for the first, > 1 µM for the second.

`COc1ccccc1COCCCOc1ccc(N2C(=O)CNC[C@@H]2CNC(=O)c2ccc3ccccc3c2)cc1` [Example 85, naphthalene-2-carboxylic acid ([2R]-1-{4-[3-(2-methoxybenzyloxy)-propoxy]-phenyl}-6-oxopiperazin-2-ylmethyl)-amide] and `COc1ccccc1COCCCOc1ccc(N2C(=O)CNC[C@@H]2COc2ccc3ccccc3c2)cc1C(=O)O` [Example 98, 2-[(5R)-3-(2-methoxybenzyloxy)-propoxy]-5-[2-(naphthalene-2-yloxymethyl)-6-oxopiperazin-1-yl]-benzoic acid] cannot be ordered by IC50: > 1 µM for the first, > 1 µM for the second.

First: Fc1ccccc1COCCCOc1ccc(N2CCNC[C@@H]2COc2ccc3ccccc3c2)cc1 [Example 87, (2R)-1-{4-[3-(2-fluorobenzyloxy)-propoxy]-phenyl}-2-(naphthalen-2-yloxymethyl)-piperazine]
Second: CCOc1ccccc1COCCCOc1ccc(N2CCNC[C@@H]2COc2ccc3ccccc3c2)cc1 [Example 88, (2R)-1-{4-[3-(2-ethoxybenzyloxy)-propoxy]-phenyl}-2-(naphthalen-2-yloxymethyl)-piperazine]
The IC50 of the first is 3.3-fold lower: 0.597 µM for the first, 1.98 µM for the second.

First: COc1cccc(COCCCOc2ccc(N3CCNC[C@@H]3COc3ccc4ccccc4c3)cc2)c1 [Example 89, (2R)-1-{4-[3-(3-methoxybenzyloxy)-propoxy]-phenyl}-2-(naphthalen-2-yloxymethyl)-piperazine]
Second: COc1ccccc1COCCCOc1ccc(N2CCNC[C@@H]2COCc2ccc3ccccc3c2)cc1 [Example 90, (2R)-1-{4-[3-(2-methoxybenzyloxy)-propoxy]-phenyl}-2-(naphthalen-2-ylmethoxymethyl)-piperazine]
The IC50 of the first is 14-fold higher: 23.7 µM for the first, 1.7 µM for the second. The second is the more potent here.

`COc1ccccc1COCCCOc1ccc(N2CCNC[C@@H]2COCc2cccc(-c3ccccc3)c2)cc1` [Example 91, (2R)-2-(biphenyl-3-ylmethoxymethyl)-1-{4-[3-(2-methoxybenzyloxy)-propoxy]-phenyl}-piperazine] and `COc1ccccc1COCCCOc1ccc(N2C(=O)CNC[C@@H]2COc2cccc(-c3ccccc3)c2)cc1` [Example 106, (6R)-6-(biphenyl-3-yloxymethyl)-1-{4-[3-(2-methoxybenzyloxy)-propoxy]-phenyl}-piperazin-2-one] are within 1.5-fold of each other in IC50: 1.02 µM for the first, 1.51 µM for the second.

`COc1ccccc1COCCCOc1ccc(N2C(=O)CNC[C@@H]2COc2ccc(-c3ccccc3)cc2)cc1` [Example 92, (6R)-6-(biphenyl-4-yloxymethyl)-1-(4-[3-(2-methoxybenzyloxy)-propoxy]-phenyl)-piperazin-2-one] and `COc1ccccc1COCCCOc1ccc(N2C(=O)CNC[C@@H]2COc2ccc(NC(C)=O)cc2)cc1` [Example 93, N-[4-([2R]-1-{4-[3-(2-methoxybenzyloxy)-propoxy]-phenyl}-6-oxopiperazin-2-ylmethoxy)-phenyl]-acetamide] cannot be ordered by IC50: 2.52 µM for the first, > 1 µM for the second.

First: COc1ccccc1COCCOCc1ccc(N2CCNC[C@@H]2COc2ccc3ccccc3c2)cc1 [Example 94, (2R)-1-{4-[2-(2-methoxybenzyloxy)-ethoxymethyl]-phenyl}-2-(naphthalene-2-yloxymethyl)-piperazine]
Second: COc1ccccc1CCOCCOc1ccc(N2CCNC[C@@H]2COc2ccc3ccccc3c2)cc1 [Example 104]
The IC50 of the first is 2.4-fold higher: 2.55 µM for the first, 1.07 µM for the second. The second is the more potent here.

First: COc1ccccc1COCCCOc1ccc(N2C(=O)CNC[C@@H]2COc2ccc(C(=O)N(C)C)cc2)cc1 [Example 95, 4-([2R]-1-{4-[3-(2-methoxybenzyloxy)-propoxy]-phenyl}-6-oxopiperazin-2-ylmethoxy)-N,N-dimethyl-benzamide]
Second: COc1ccc2ccc(OC[C@H]3CNCC(=O)N3c3ccc(OCCCOCc4ccccc4OC)cc3)cc2c1 [Example 105, (6R)-1-{4-[3-(2-methoxybenzyloxy)-propoxy]-phenyl}-6-(7-methoxynaphthalen-2-yloxymethyl)-piperazin-2-one]
The IC50 of the first is 18-fold higher: 4.05 µM for the first, 0.225 µM for the second. The second is the more potent here.

Going from `COC(=O)c1cc(N2C(=O)CNC[C@@H]2COc2ccc3ccccc3c2)ccc1OCCCOCc1ccccc1OC` [Example 96, 2-[(5R)-3-(2-methoxybenzyloxy)-propoxy]-5-[2-(naphthalene-2-yloxymethyl)-6-oxopiperazin-1-yl]-benzoic acid methyl ester] to `COc1ccccc1COCCCOc1ccc(N2C(=O)CNC[C@@H]2COc2ccc3ccccc3c2)cc1OC` [Example 107, (6R)-1-(3-methoxy-4-[3-(2-methoxybenzyloxy)-propoxy]-phenyl)-6-(naphthalene-2-yloxymethyl)-piperazin-2-one], the IC50 falls from > 1 µM to 0.537 µM. The second is the more potent here.

`COCc1ccc(N2CCNC[C@@H]2COc2ccc3ccccc3c2)cc1` [Example 99, (2R)-1-(4-methoxymethylphenyl)-2-(naphthalene-2-yloxymethyl)-piperazine] and `COc1ccccc1CSCCCOc1ccc(N2CCNC[C@@H]2COc2ccc3ccccc3c2)cc1` [Example 102, (2R)-1-{4-[3-(2-methoxybenzylsulfanyl)-propoxy]-phenyl}-2-(naphthalene-2-yloxymethyl)-piperazine] cannot be ordered by IC50: > 1 µM for the first, > 1 µM for the second.

First: COc1ccccc1COCCCOc1ccc(N2C(=O)CNC[C@@H]2COc2ccc3ccccc3c2)cc1Cl [Example 100, (6R)-1-(3-chloro-4-[3-(2-methoxybenzyloxy)-propoxy]-phenyl)-6-(naphthalene-2-yloxymethyl)-piperazin-2-one]
Second: COc1ccccc1COCCCOc1ccc(N2C(=O)CNC[C@@H]2COc2ccc3ccccc3c2)cc1C [Example 103, (6R)-1-{4-[3-(2-methoxybenzyloxy)-propoxy]-3-methyl-phenyl}-6-(naphthalene-2-yloxymethyl)-piperazin-2-one]
The IC50 of the first is higher: > 1 µM for the first, 0.167 µM for the second. The second is the more potent here.

From US20040214832A1, “Piperazine derivative renin inhibitors” (priority 2003, published 2004)
